These results are taken from patent publication US11844845B2, “Cell penetrating peptide, conjugate comprising same, and composition comprising conjugate” (GEMVAX & KAEL CO., LTD., priority 2012, dated 2023).

In the assay the test system is HeLa cell. The assay can be described thus: Cell penetration of pep(CPP)-FITC conjugate in HeLa cell line, flow cytometry (FACS). The assay is classed as cell-based, Homo sapiens. The settings on record: HeLa cells, 20 uM FITC-fused peptide, 37° C. for an hour, control = FITC only. On the procedure: Homo sapiens cervix adenocarcinoma cell line as HeLa cell lines were purchased from ATCC (American Type Cell Culture). The cells were cultured in MEM supplemented with 10% fetal bovine serum (Invitrogen, USA), Earle's salts, non-essential amino acids, sodium pyruvate and 100 μg/ml penicillin and 10 units/ml streptomycin and cultured at 37° C., 5% CO2 incubator.
Flow cytometry and Confocal microscope analysis were performed to compare the between degree of cellular uptake of the cells were treated with SEQ ID NO: 2 to SEQ ID NO: 178, pep (CPP) and control.
The cell line was divided in a 6-well plate and cultured in a medium containing 10% fetal bovine serum (Invitrogen, USA), 100 μg/ml penicillin, 100 units/ml streptomycin at 37° C. 5% CO2 incubator for 12 hours. After washing the cell line with PBS, starvation was induced in a Minimum Essential Medium for an hour. 20 uM of each carrier peptide was treated and cultured at 37° C. for an hour. After repeating the step of washing the cells with PBS for three times, Trypsin-EDTA was treated form 10 mins at 37° C. to separate the carrier peptide on the outside of the cell. cells were collected with refrigerated PBS and centrifugation was performed to repeat the step of washing the cells for three times. After then, the cells were suspended in 0.5 ml of PBS containing 4% Paraformaldehyde and fluorescence of the cells was analyzed using FACS Calibur (Becton Dickinson). The cellular uptake aspect of control and various peptides combined with FITC was compared and analyzed by MFI (Mean Fluorescence Intensity).
Analysis results shown in FIGS. 2 to 29 are given in detail in Table 7 below.
Background: Flow cytometry measures light scatter and fluorescence of single cells or particles in a stream.

As to “RPAL (listed as Homo sapiens) [Pep-RIA-128]”, the “cellular uptake, MFI (Mean Fluorescence Intensity)” value (from here on “cellular uptake, MFI”) was determined as 12.41 ± 0.16. For “ARPALLTSRLRF (listed as Homo sapiens) [Pep-RIA-111]” the value was 20.53 ± 0.21; for “HREARPALLTSRLRFIPKPDGLRPI (listed as Homo sapiens) [Pep-RIA-62]”, 18.89 ± 0.75; for “EARPALLTSRLRFIPKPDGLRPIVN (listed as Homo sapiens) [Pep-RIA-72]”, 21.7 ± 1.21. As for “AEVRQHREARPALLTSRLRFIPKPD (listed as Homo sapiens) [Pep-RIA-52]”, the “cellular uptake, MFI” value is reported as 15.49 ± 0.29.

Regarding “REARPALLTSRLRFIPKP (listed as Homo sapiens) [Pep-RIA-15]”, the “cellular uptake, MFI” value stood at 16.32 ± 0.36. Turning to “LLT (listed as Homo sapiens) [Pep-RIA-152]”, the “cellular uptake, MFI” value stood at 12.58 ± 0.47. As for “EVRQHREARPALLTSRLRFIPKP (listed as Homo sapiens) [Pep-RIA-40]”, the figure is 15.14 ± 3.52; as for “ALLTSRLR (listed as Homo sapiens) [Pep-RIA-107]”, 16.41 ± 1.36. For “RPALLT (listed as Homo sapiens) [Pep-RIA-126]” the value was 11.51 ± 1.84; for “PAL (listed as Homo sapiens) [Pep-RIA-138]”, 10.8 ± 0.78; for “EARPALLTS (listed as Homo sapiens) [Pep-RIA-84]”, 10.32 ± 0.49. As for “RPALLTS (listed as Homo sapiens) [Pep-RIA-125]”, the figure is 11.07 ± 0.55; as for “HREARPALLTSRLRFIPKPDGLR (listed as Homo sapiens) [Pep-RIA-38]”, 18.02 ± 0.71. In the case of “HREARPALLTSRLRFIPK (listed as Homo sapiens) [Pep-RIA-2]”, the “cellular uptake, MFI” value worked out at 20.56 ± 1.23.

Consider “ALLTSRLRFIP (listed as Homo sapiens) [Pep-RIA-139]”, for which the “cellular uptake, MFI” value is given as 34.19 ± 1.43.

Consider “LRFIP (listed as Homo sapiens) [Pep-RIA-174]”, for which the “cellular uptake, MFI” value amounted to 5.66 ± 0.33.

For the substance “LLTSRLRFIP (listed as Homo sapiens) [Pep-RIA-146]”, the “cellular uptake, MFI” value was 17.43 ± 0.49. “LTSRLRFI (listed as Homo sapiens) [Pep-RIA-154]”: the “cellular uptake, MFI” value is given as 12.21 ± 1.29. As for “VRQHREARPALLTSRLRFIPKPDGL (listed as Homo sapiens) [Pep-RIA-34]”, the “cellular uptake, MFI” value was 16.37 ± 0.97. “EARPALLTSRLRFIPKPDGLRPIVNMD (listed as Homo sapiens) [Pep-RIA-74]”: the “cellular uptake, MFI” value was 21.77 ± 2.01. As for “LRFIPK (listed as Homo sapiens) [Pep-RIA-100]”, the figure is 14.69 ± 1.48; as for “ARPALLTSRLRFI (listed as Homo sapiens) [Pep-RIA-110]”, 11.89 ± 0.68.

Consider “EARPALLTSRLRFIP (listed as Homo sapiens) [Pep-RIA-78]”, for which the “cellular uptake, MFI” value amounted to 13.95 ± 0.57. For “REARPALLTSRLRFIPK (listed as Homo sapiens) [Pep-RIA-1]” the value was 24.3 ± 0.61; for “RPA (listed as Homo sapiens) [Pep-RIA-129]”, 11.18 ± 0.97. As for “SRL (listed as Homo sapiens) [Pep-RIA-169]”, the figure is 5.64 ± 0.65; as for “LTSRLRFIPK (listed as Homo sapiens) [Pep-RIA-96]”, 14.96 ± 0.42; as for “RQHREARPALLTSRLRFIPK (listed as Homo sapiens) [Pep-RIA-4]”, 27.25 ± 0.79.

Turning to “SRLRFI (listed as Homo sapiens) [Pep-RIA-166]”, the “cellular uptake, MFI” value is 6.97 ± 0.53. For “AEVRQHREARPALLTSRLRFIPKPDG (listed as Homo sapiens) [Pep-RIA-53]” the value was 15.85 ± 0.74; for “ALLTSRLRF (listed as Homo sapiens) [Pep-RIA-140]”, 21.18 ± 0.11.

As to “REARPALLTSRLRFIPKPDG (listed as Homo sapiens) [Pep-RIA-23]”, the “cellular uptake, MFI” value amounted to 16.57 ± 0.68. As for “ARPA (listed as Homo sapiens) [Pep-RIA-119]”, the figure is 11.19 ± 0.61; as for “RQHREARPALLTSRLRFIPKPDGLRPI (listed as Homo sapiens) [Pep-RIA-60]”, 15.93 ± 1.84; as for “REARPALLTSRLRFIPKPDGLRPI (listed as Homo sapiens) [Pep-RIA-63]”, 19.72 ± 0.33. For the substance “RFIPK (listed as Homo sapiens) [Pep-RIA-101]”, the “cellular uptake, MFI” value is 12.35 ± 0.28. For “LTSRLR (listed as Homo sapiens) [Pep-RIA-156]” the value was 12.21 ± 0.24; for “ALLTSRLRFIPK (listed as Homo sapiens) [Pep-RIA-94]”, 21.07 ± 1.56. As for “REARPALLTSRLRFIPKPDGLR (listed as Homo sapiens) [Pep-RIA-39]”, the figure is 15.84 ± 0.79; as for “QHREARPALLTSRLRFIPKPDGL (listed as Homo sapiens) [Pep-RIA-28]”, 14.8 ± 0.32. For “EARPALLTSR (listed as Homo sapiens) [Pep-RIA-83]” the value was 10.27 ± 0.25.

Turning to “PALLTSRL (listed as Homo sapiens) [Pep-RIA-133]”, the “cellular uptake, MFI” value is 12.95 ± 0.69. For the substance “ELSEAEVRQHREARPALLTSRLRFIPK (listed as Homo sapiens) [Pep-RIA-11]”, the “cellular uptake, MFI” value worked out at 15.22 ± 0.23. As for “ALLT (listed as Homo sapiens) [Pep-RIA-144]”, the figure is 14.54 ± 0.21. For “LLTSRLRFI (listed as Homo sapiens) [Pep-RIA-147]” the value was 14.93 ± 1.55. As for “EARPALLTSRLRFIPKP (listed as Homo sapiens) [Pep-RIA-64]”, the figure is 15.51 ± 0.58. Consider “SRLRFIPK (listed as Homo sapiens) [Pep-RIA-98]”, for which the “cellular uptake, MFI” value was 14.04 ± 1.55. As for “EARPALLTSRLRFIPKPDGLRPIV (listed as Homo sapiens) [Pep-RIA-71]”, the figure is 17.21 ± 0.52. As for “PALLTSRLRFI (listed as Homo sapiens) [Pep-RIA-131]”, the figure is 13.66 ± 0.87.

As for “RPALLTSRLRFI (listed as Homo sapiens) [Pep-RIA-105]”, the “cellular uptake, MFI” value is listed as 19.4 ± 0.59. For “TSRLRF (listed as Homo sapiens) [Pep-RIA-161]” the value was 14.41 ± 0.81. As for “AEVRQHREARPALLTSRLRFIPKPDGLR (listed as Homo sapiens) [Pep-RIA-55]”, the figure is 18.75 ± 1.51. With “QLRELSEAEVRQHREARPALLTSRLRFIPK (listed as Homo sapiens) [Pep-RIA-14]”, the “cellular uptake, MFI” value is listed as 23.67 ± 1.22. Turning to “TSRLRFIP (listed as Homo sapiens) [Pep-RIA-159]”, the “cellular uptake, MFI” value came out at 12.58 ± 1.08. For “EARPALLTSRLRFIPKPDGLRPI (listed as Homo sapiens) [Pep-RIA-70]” the value was 16.32 ± 0.44; for “ARPALLTSRLRFIP (listed as Homo sapiens) [Pep-RIA-104]”, 22.51 ± 0.96; for “TSRLRFIPK (listed as Homo sapiens) [Pep-RIA-97]”, 13.68 ± 0.37. For “AEVRQHREARPALLTSRLRFIPKP (listed as Homo sapiens) [Pep-RIA-51]” the value was 15.13 ± 1.03; for “EARPALLTSRLRFIPKPDGLR (listed as Homo sapiens) [Pep-RIA-68]”, 14.94 ± 1.88. As for “IPK (listed as Homo sapiens) [Pep-RIA-103]”, the figure is 10.44 ± 0.18; as for “ALL (listed as Homo sapiens) [Pep-RIA-145]”, 13.85 ± 0.38; as for “RQHREARPALLTSRLRFIPKP (listed as Homo sapiens) [Pep-RIA-24]”, 19.42 ± 0.72.
